The values below come from patent publication US8293979B2, “Weed controller metabolism proteins, genes, thereof and use of the same” (Sumitomo Chemical Company, Limited, priority 2001, dated 2012).

Series [1] concerns present invention protein (A3). The experiment in a line: Metabolism of compounds by the present invention protein (A3), reaction solution, HPLC. Type of series: in vitro ADME, Streptomyces testaceus ATCC21469. The settings on record: 5 ppm of compound, components A, B, C, 20 μl supernatant fraction of Example 12(2), 30° C. for 10 minutes.
In series [2] the test system is present invention protein (A14). The experiment in a line: Metabolism of compounds by the present invention protein (A14), reaction solution, HPLC. Type of series: in vitro ADME, Streptomyces glomerochromogenes IFO 13673t. The settings on record: 5 ppm of compound, components A, B, C, 20 μl supernatant fraction of Example 38(2), 30° C. for 10 minutes.
For series [3], the system named is present invention protein (A17). The experiment in a line: Metabolism of compounds by the present invention protein (A17), reaction solution, HPLC. Type of series: in vitro ADME, Streptomyces griseus ATCC 10137. The settings on record: 12.5 ppm of compound, components A, B, C, 20 μl supernatant fraction of Example 51(2), 30° C. for 10 minutes.
Series [4] has as its system present invention protein (A19). Kind of series: Metabolism of compounds by the present invention protein (A19), reaction solution, HPLC. Type of series: in vitro ADME, Streptomyces griseus IFO 13849T. As to conditions: 12.5 ppm of compound, components A, B, C, 20 μl supernatant fraction of Example 55(2), 30° C. for 10 minutes.
For series [5], the system named is leaf pieces of the tobacco to which the present invention DNA (A1)S has been introduced. The experiment in a line: Evaluation of the resistance utilizing a leaf piece of the present invention DNA (A1)S transgenic tobacco. Type of series: cell-based. As to conditions: 1 point continuously grew, 0.5 halfly withered, 0 turned white and withered. The protocol:
Next, other than culturing overnight the transgenic agrobacterium bearing the above plasmid at 30° C. in LB liquid medium containing 25 mg/L kanamycin, said agrobacterium were utilized to introduce genes into tobacco according to the method described in Example 19. There were obtained, respectively, transgenic tobaccos which have incorporated the T-DNA region of pBI-NdG6-rSt-657soy or pBI-NdG6-rSt12-657soy.
Leaves were taken from 35 transgenic tobaccos obtained in Example 47(9). Each leaf was divided into pieces in which each piece was 5 to 7 mm wide. Leaf pieces were planted onto MS agar medium containing 0, 0.05, 0.1 or 0.2 mg/L of compound (II) and cultured in the light at room temperature. On the 11th day of culturing, the herbicidal damage of each of the leaf pieces was observed. Further, leaf pieces were planted onto MS agar mediums containing 0, 0.01, 0.02, 0.05 or 0.1 mg/L of compound (XII) and cultured in the light at room temperature. On the 7th day of culturing, the herbicidal damage of each of the leaf pieces was observed. […] An average score for each group was determined by scoring 1 point to a leaf piece that continuously grew, 0.5 points to a halfly withered leaf piece in which chemical damage was observed, and 0 points to a leaf piece which turned white and had withered. […]

Series [6] relates to present invention protein (A13). The experiment in a line: Metabolism of compounds by the present invention protein (A13), reaction solution, HPLC. Type of series: in vitro ADME, Streptomyces thermocoerulesces IFO 14273t. As to conditions: 5 ppm of compound, components A, B, C, 20 μl supernatant fraction of Example 36(2), 30° C. for 10 minutes.
For series [7], the system named is present invention protein (A15). The experiment in a line: Metabolism of compounds by the present invention protein (A15), reaction solution, HPLC. Type of series: in vitro ADME, Streptomyces olivochromogenes IFO 12444. The settings on record: 5 ppm of compound, components A, B, C, 20 μl supernatant fraction of Example 40(2), 30° C. for 10 minutes.
Series [8] deals with present invention protein (A12). Kind of series: Metabolism of compounds by the present invention protein (A12), reaction solution, HPLC. Type of series: in vitro ADME, Streptomyces tsusimaensis IFO 13782. The settings on record: 5 ppm of compound, components A, B, C, 20 μl supernatant fraction of Example 34(2), 30° C. for 10 minutes.
For series [9], the system named is present invention protein (A25). Kind of series: Metabolism of compounds by the present invention protein (A25), reaction solution, HPLC. Type of series: in vitro ADME, Streptomyces steffisburgensis IFO 13446T. As to conditions: 12.5 ppm of compound, components A, B, C, 20 μl supernatant fraction of Example 67(2), 30° C. for 10 minutes.

With `Cn1c(C(F)(F)F)cc(=O)n(-c2cc(Oc3cccnc3OCC(=O)O)c(Cl)cc2F)c1=O` [compound (XII)], the “concentration of the compound detected from metabolism solution (A3) compared to control solution (A3)” value in series [1] is given as “lower”. In series [2], the “concentration of the compound detected from metabolism solution (A14) compared to control solution (A14)” value is listed as “lower”. Further, in [3], the “concentration of the compound detected from metabolism solution (A17) compared to control solution (A17)” value is on record as “lower”. In addition, in [4], the “concentration of the compound detected from metabolism solution (A19) compared to control solution (A19)” value was “lower”. The “average score of leaf pieces compared with the wild type tobacco” value in series [5] (MS agar mediums containing 0, 0.01, 0.02, 0.05 or 0.1 mg/L of compound (XII), 7th day) is reported as “higher”. Also, the “concentration of the compound detected from metabolism solution (A13) compared to control solution (A13)” value in [6] is recorded as “lower”. Besides, the “concentration of the compound detected from metabolism solution (A15) compared to control solution (A15)” value in series [7] is listed as “lower”. Moreover, in series [8], the “concentration of the compound detected from metabolism solution (A12) compared to control solution (A12)” value is recorded as “lower”. In addition, the “concentration of the compound detected from metabolism solution (A25) compared to control solution (A25)” value in series [9] is “lower”.
Take `C[C@@H](Oc1cc(-n2c(=O)cc(C(F)(F)F)n(C)c2=O)c(F)cc1Cl)C(=O)O` [compound (II)]: the “average score of leaf pieces compared with the wild type tobacco” value in series [5] (MS agar medium containing 0, 0.05, 0.1 or 0.2 mg/L of compound (II), 11th day) is given as “higher”.
For the compound `Cn1c(C(F)(F)F)cc(=O)n(-c2cc(Oc3ccccc3OCC(=O)O)c(Cl)cc2F)c1=O` [compound (XIII)], in series [1], the “concentration of the compound detected from metabolism solution (A3) compared to control solution (A3)” value is listed as “lower”. The “concentration of the compound detected from metabolism solution (A14) compared to control solution (A14)” value in series [2] is on record as “lower”. Moreover, the “concentration of the compound detected from metabolism solution (A17) compared to control solution (A17)” value in series [3] is given as “lower”. Also, the “concentration of the compound detected from metabolism solution (A19) compared to control solution (A19)” value in series [4] was “lower”. Besides, the “concentration of the compound detected from metabolism solution (A13) compared to control solution (A13)” value in [6] is given as “lower”. Also, in [7], the “concentration of the compound detected from metabolism solution (A15) compared to control solution (A15)” value was “lower”. In addition, the “concentration of the compound detected from metabolism solution (A12) compared to control solution (A12)” value in series [8] is listed as “lower”. Moreover, the “concentration of the compound detected from metabolism solution (A25) compared to control solution (A25)” value in [9] is reported as “lower”.
